Data set [1] concerns apoE^−/− mice. The data set can be described thus: Abdominal aortic adventitia lesion analysis (incidence and severity). The class given is in vivo. To be noted: 1 of 22 mice; vehicle control 30 percent, 3 of 10 mice. From the text:
ApoE^−/− mice (backcrossed ten times to the C57BL/6 background) were purchased from The Jackson Laboratory. The mice were kept on a twelve-hour light/twelve-hour dark regimen upon arrival. All animal experiments were approved by the IACUC of the Consumer & Personal Product Worldwide, in accordance with AAALAC guidelines. Eight week old, male apoE^−/− mice were fed a normal mouse-chow diet (RP5001; PMI Feeds Inc., St. Louis, Mo.) and acclimated for one week before switching to a pro-atherogenic high fat, high cholesterol, diet (“Western diet”, 21% fat, 0.2% cholesterol, diet No. 88137, Harlan-Teklad, Madison, Wis.) for four weeks. […]
The abdominal aorta was subjected to abdominal aortic adventitia lesion analysis. […] Classification of the adventitia lesions was determined according to the scale based on the gross appearance of the aorta reported by Daugherty et al. Briefly, I: Dilated lumen in the supra-renal region of the aorta with no thrombus; II: Remodeled tissue in the supra-renal region that frequently contains thrombus; III: A pronounced bulbous form of type II that contains thrombus; IV: A form in which there are multiple adventitia lesions containing thrombus, some overlapping, in the suprarenal area of the aorta.

Data set [2] has as its system apoE^−/− mice. Description: Health status, body weight and re-suturing incidence post mini-pump surgery. The data set is classed as in vivo. An excerpt: (§1) ApoE^−/− mice (backcrossed ten times to the C57BL/6 background) were purchased from The Jackson Laboratory. The mice were kept on a twelve-hour light/twelve-hour dark regimen upon arrival. All animal experiments were approved by the IACUC of the Consumer & Personal Product Worldwide, in accordance with AAALAC guidelines. Eight week old, male apoE^−/− mice were fed a normal mouse-chow diet (RP5001; PMI Feeds Inc., St. Louis, Mo.) and acclimated for one week before switching to a pro-atherogenic high fat, high cholesterol, diet (“Western diet”, 21% fat, 0.2% cholesterol, diet No. 88137, Harlan-Teklad, Madison, Wis.) for four weeks.
(§2) Upon initiation of the pro-atherogenic diet, Alzet osmotic mini-pumps (Model 2004; ALZA Scientific Products, Mountain View, Calif.) were implanted into the apoE^−/− mice subcutaneously. The mini-pumps were loaded with angII (EMD Biosciences, San Diego, Calif.) at the delivery rate of 1,000 ng/min/kg for twenty-eight days. The mice were anesthetized using isoflurane for the implantation of the mini-pumps. Small incisions in the lower back of the neck were made and the mini-pumps were inserted into the subcutaneous space of the mice. The incisions were then closed using sterile staplers. Triple antibiotic ointment was applied to each incision post surgery. The mice on the high fat, high cholesterol diet were sacrificed by CO2 inhalation twenty-eight days post mini-pump implantation as is explained in detail subsequently.
(§3) Upon initiation of the pro-atherogenic diet and osmotic mini-pump implantation, mice were randomly assigned to four groups; namely, vehicle control, rapamycin or sirolimus 0.5 mg/kg, sirolimus 1.0 mg/kg and sirolimus 4.0 mg/kg body weight. The defined amount of sirolimus was dissolved in ethanol, brought up in a vehicle comprising 0.2 percent Sodium carboxymethylcellulose and 0.25 percent tween 80) and administrated to mice (i.p., daily).
The data is depicted as re-suturing incedince post surgery per group size. A clear increase of the suture index is observed in response to sirolimus administration in a dose dependent manner.

Data set [3] can be described thus: Plasma lipids (total cholesterol, triglycerides, LDL and HDL cholesterol). The data set is classed as in vivo, apoE^−/− mice.
From the text: as §1, §2, §3
Plasma triglyceride and total cholesterol levels were determined via an automated enzymatic technique (Equal Diagnostic Inc., Exton, Pa.). Mouse lipoproteins were separated by fast protein liquid chromatography (FPLC) analysis of plasma using 2 Superose 6 columns in series (Pharmacia Biotech Inc., Piscataway, N.J.). Aliquots of mouse plasma (100 μl) were injected onto the column, separated with a buffer containing 0.15 M NaCl, 0.01 M Na2HPO4, and 0.1 mM EDTA (pH 7.5) at a flow rate of 0.5 mL/min, and analyzed for lipids.

Data set [4] is described as follows: Sirolimus whole blood pharmacokinetics (LC-MS/MS). The data set is classed as in vivo, apoE^−/− mice. To be noted: i.p., daily, 0.5, 1.0 and 4.0 mg/kg. On the procedure:
as §3
Sirolimus was quantitated using liquid-liquid extraction and reverse-phase liquid chromatography mass spectrometry (LC-MS/MS). Briefly, 100 μl of mouse whole blood sample underwent protein precipitation with 5 percent Methanol/Zinc sulfate solution containing the internal standard ascomycin. After centrifugation of the resulting solution, the liquid mixture proceeded with liquid-liquid extraction with 1-chlorobutane. The combined organic extract was then blown down to dryness and reconstituted with 50:50 Methanol:20 mM ammonium acetate solution. The samples were analyzed on API-5000 using C18 reverse-phase chromatography in Multiple Reaction Monitoring (MRM) mode using atmospheric pressure chemical ionization (APCI) approach. The calibration standard curve results for sirolimus in mouse whole blood were acceptable from 0.5 ng/ml to 10,000 ng/ml with correlation coefficient of 0.998. The percent bias for the calibration standards ranged from about […] to about 8.0 percent.
The regimen of sirolimus administration (i.p., daily, 0.5, 1.0, and 4.0 mg/kg) results in significant increase of whole blood sirolimus levels in the apoE^−/− mice within 24 hours post injection. The blood drug levels reached peak level at 1 hour post injection, dropped to approximately 30 to 40 percent at 6 hours and remained at trace level at 24 hours.

For `CO[C@H]1C[C@@H]2CC[C@@H](C)[C@@](O)(O2)C(=O)C(=O)N2CCCC[C@H]2C(=O)O[C@H]([C@H](C)C[C@@H]2CC[C@@H](O)[C@H](OC)C2)CC(=O)[C@H](C)/C=C(\C)[C@@H](O)[C@@H](OC)C(=O)[C@H](C)C[C@H](C)/C=C/C=C/C=C/1C` [sirolimus], the “incidence of abdominal aortic adventitia lesion” value in data set [1] turned out to be 4.5%. In addition, the body weight entry in data set [2] (all 3 sirolimus treated groups, no statistical significance) is given as “trend of decreased body weight”. The health status result in data set [2] (i.p., daily, 0.5, 1.0 and 4.0 mg/kg, angII infusion, high fat, high cholesterol diet) is “not overtly affected”. Moreover, the “re-suturing incidence post surgery (wound healing)” value in data set [2] (post mini-pump implantation, dose dependent) is “increased incidence of re-suturing”. Further, the “elevation of LDL cholesterol” value in data set [3] (all sirolimus treated mice) was more than 60%. In data set [3] (i.p., daily, 0.5, 1.0 and 4.0 mg/kg, angII, Western diet, 28 days), the “increase of plasma total cholesterol level vs vehicle control” value is reported as 44 to 50%. The “increase of HDL cholesterol” value in data set [3] (mice receiving sirolimus) is on record as 55 to 81%. Also, the triglyceride result in data set [3] (regardless of the dosage employed) is recorded as “trend of elevated triglyceride”. In addition, the “blood drug level at 6 hours (relative to peak level)” value in data set [4] (6 hours post injection) lay in the range of 30 to 40%. For the same compound, in data set [4] (24 hours post injection), the “blood drug level at 24 hours” value is on record as “trace level”. Besides, in data set [4] (whole blood), the “time of peak whole blood drug level post injection” value was determined as 1 h.
